# Results as given in ChEMBL document CHEMBL1121997, “2-beta-D-Ribofuranosylthiazole-4-carboxamide, a novel potential antitumor agent for lung tumors and metastases” (1982).
# How the values were obtained:
# Type in all cases: functional
# Mus musculus [1] = experiment: Number of survivors out of 10 mice after 60 days infected with lewis lung carcinoma at the dose of 800 mg/kg in experiment 3
# Mus musculus [2] = experiment: Average body weight in grams on day 5 minus average body weight on day 1 at the dose of 100 mg/kg in experiment 2
# Mus musculus [3] = experiment: Average body weight in grams on day 5 minus average body weight on day 1 at the dose of 0.78 mg/kg in experiment 4
# Mus musculus [4] = experiment: Number of survivors out of 10 mice after 60 days infected with lewis lung carcinoma at the dose of 25 mg/kg in experiment 3
# Mus musculus [5] = experiment: Effect of compound on life span of mice inoculated intravenously with lewis lung carcinoma at the dose of 100 mg/kg in experiment 2; details: route intravenous
# Mus musculus [6] = experiment: Number of survivors out of 10 mice after 60 days infected with lewis lung carcinoma at the dose of 50 mg/kg in experiment 2
# Mus musculus [7] = experiment: Number of survivors out of 10 mice after 60 days infected with lewis lung carcinoma at the dose of 400 mg/kg in experiment 2
# Mus musculus [8] = experiment: Number of survivors out of 10 mice after 60 days infected with lewis lung carcinoma at the dose of 100 mg/kg in experiment 2
# Mus musculus [9] = experiment: Average body weight in grams on day 5 minus average body weight on day 1 at the dose of 200 mg/kg in experiment 3
# Mus musculus [10] = experiment: Effect of compound on life span of mice inoculated intravenously with lewis lung carcinoma at the dose of 800 mg/kg in experiment 2; details: route intravenous
# Mus musculus [11] = experiment: Average body weight in grams on day 5 minus average body weight on day 1 at the dose of 800 mg/kg in experiment 3
# Mus musculus [12] = experiment: Number of survivors out of 10 mice after 60 days infected with lewis lung carcinoma at the dose of 800 mg/kg in experiment 2
# Mus musculus [13] = experiment: Number of survivors out of 10 mice after 60 days infected with lewis lung carcinoma at the dose of 800 mg/kg in experiment 1
# Mus musculus [14] = experiment: Average body weight in grams on day 5 minus average body weight on day 1 at the dose of 1.56 mg/kg in experiment 4
# Mus musculus [15] = experiment: Number of survivors out of 10 mice after 60 days infected with lewis lung carcinoma at the dose of 200 mg/kg in experiment 1
# Mus musculus [16] = experiment: Average body weight in grams on day 5 minus average body weight on day 1 at the dose of 25 mg/kg in experiment 3
# Mus musculus [17] = experiment: Effect of compound on life span of mice inoculated intravenously with lewis lung carcinoma at the dose of 200 mg/kg in experiment 3; details: route intravenous
# Mus musculus [18] = experiment: Number of survivors out of 10 mice after 60 days infected with lewis lung carcinoma at the dose of 200 mg/kg in experiment 2
# Mus musculus [19] = experiment: Number of survivors out of 10 mice after 60 days infected with lewis lung carcinoma at the dose of 100 mg/kg in experiment 3
# Mus musculus [20] = experiment: Number of survivors out of 10 mice after 60 days infected with lewis lung carcinoma at the dose of 100 mg/kg in experiment 1
# Mus musculus [21] = experiment: Number of survivors out of 10 mice after 60 days infected with lewis lung carcinoma at the dose of 3.12 mg/kg in experiment 4
# Mus musculus [22] = experiment: Average body weight in grams on day 5 minus average body weight on day 1 at the dose of 200 mg/kg in experiment 1
# Mus musculus [23] = experiment: Average body weight in grams on day 5 minus average body weight on day 1 at the dose of 400 mg/kg in experiment 1
# Mus musculus [24] = experiment: Number of survivors out of 10 mice after 60 days infected with lewis lung carcinoma at the dose of 6.25 mg/kg in experiment 4
# Mus musculus [25] = experiment: Average body weight in grams on day 5 minus average body weight on day 1 at the dose of 25 mg/kg in experiment 2
# Mus musculus [26] = experiment: Average body weight in grams on day 5 minus average body weight on day 1 at the dose of 25 mg/kg in experiment 4
# Mus musculus [27] = experiment: Effect of compound on life span of mice inoculated intravenously with lewis lung carcinoma at the dose of 3.12 mg/kg in experiment 4; details: route intravenous
# Mus musculus [28] = experiment: Average body weight in grams on day 5 minus average body weight on day 1 at the dose of 100 mg/kg in experiment 1
# Mus musculus [29] = experiment: Effect of compound on life span of mice inoculated intravenously with lewis lung carcinoma at the dose of 25 mg/kg in experiment 4; details: route intravenous
# Mus musculus [30] = experiment: Number of survivors out of 10 mice after 60 days infected with lewis lung carcinoma at the dose of 0.78 mg/kg in experiment 4
# Mus musculus [31] = experiment: Average body weight in grams on day 5 minus average body weight on day 1 at the dose of 400 mg/kg in experiment 3
# Mus musculus [32] = experiment: Average body weight in grams on day 5 minus average body weight on day 1 at the dose of 50 mg/kg in experiment 3
# Mus musculus [33] = experiment: Effect of compound on life span of mice inoculated intravenously with lewis lung carcinoma at the dose of 400 mg/kg in experiment 3; details: route intravenous
# Mus musculus [34] = experiment: Average body weight in grams on day 5 minus average body weight on day 1 at the dose of 6.25 mg/kg in experiment 4
# Mus musculus [35] = experiment: Number of survivors out of 10 mice after 60 days infected with lewis lung carcinoma at the dose of 25 mg/kg in experiment 4
# Mus musculus [36] = experiment: Effect of compound on life span of mice inoculated intravenously with lewis lung carcinoma at the dose of 1.56 mg/kg in experiment 4; details: route intravenous
# Mus musculus [37] = experiment: Number of survivors out of 10 mice after 60 days infected with lewis lung carcinoma at the dose of 50 mg/kg in experiment 1
# Mus musculus [38] = experiment: Average body weight in grams on day 5 minus average body weight on day 1 at the dose of 25 mg/kg in experiment 1
# Mus musculus [39] = experiment: Effect of compound on life span of mice inoculated intravenously with lewis lung carcinoma at the dose of 6.25 mg/kg in experiment 4; details: route intravenous
# Mus musculus [40] = experiment: Effect of compound on life span of mice inoculated intravenously with lewis lung carcinoma at the dose of 0.78 mg/kg in experiment 4; details: route intravenous
# Mus musculus [41] = experiment: Average body weight in grams on day 5 minus average body weight on day 1 at the dose of 800 mg/kg in experiment 2
# Mus musculus [42] = experiment: Number of survivors out of 10 mice after 60 days infected with lewis lung carcinoma at the dose of 25 mg/kg in experiment 1
# Mus musculus [43] = experiment: Number of survivors out of 10 mice after 60 days infected with lewis lung carcinoma at the dose of 400 mg/kg in experiment 3
# Mus musculus [44] = experiment: Effect of compound on life span of mice inoculated intravenously with lewis lung carcinoma at the dose of 800 mg/kg in experiment 1; details: route intravenous
# Mus musculus [45] = experiment: Effect of compound on life span of mice inoculated intravenously with lewis lung carcinoma at the dose of 12.5 mg/kg in experiment 4; details: route intravenous
# Mus musculus [46] = experiment: Number of survivors out of 10 mice after 60 days infected with lewis lung carcinoma at the dose of 200 mg/kg in experiment 3
# Mus musculus [47] = experiment: Number of survivors out of 10 mice after 60 days infected with lewis lung carcinoma at the dose of 12.5 mg/kg in experiment 4
# Mus musculus [48] = experiment: Effect of compound on life span of mice inoculated intravenously with lewis lung carcinoma at the dose of 800 mg/kg in experiment 3; details: route intravenous
# Mus musculus [49] = experiment: Average body weight in grams on day 5 minus average body weight on day 1 at the dose of 400 mg/kg in experiment 2
# Mus musculus [50] = experiment: Effect of compound on life span of mice inoculated intravenously with lewis lung carcinoma at the dose of 50 mg/kg in experiment 3; details: route intravenous
# Mus musculus [51] = experiment: Average body weight in grams on day 5 minus average body weight on day 1 at the dose of 800 mg/kg in experiment 1
# Mus musculus [52] = experiment: Average body weight in grams on day 5 minus average body weight on day 1 at the dose of 100 mg/kg in experiment 3
# Mus musculus [53] = experiment: Average body weight in grams on day 5 minus average body weight on day 1 at the dose of 200 mg/kg in experiment 2
# Mus musculus [54] = experiment: Average body weight in grams on day 5 minus average body weight on day 1 at the dose of 3.12 mg/kg in experiment 4
# Mus musculus [55] = experiment: Number of survivors out of 10 mice after 60 days infected with lewis lung carcinoma at the dose of 25 mg/kg in experiment 2
# Mus musculus [56] = experiment: Average body weight in grams on day 5 minus average body weight on day 1 at the dose of 12.5 mg/kg in experiment 4
# Mus musculus [57] = experiment: Average body weight in grams on day 5 minus average body weight on day 1 at the dose of 50 mg/kg in experiment 1
# Mus musculus [58] = experiment: Number of survivors out of 10 mice after 60 days infected with lewis lung carcinoma at the dose of 400 mg/kg in experiment 1
# Mus musculus [59] = experiment: Effect of compound on life span of mice inoculated intravenously with lewis lung carcinoma at the dose of 25 mg/kg in experiment 3; details: route intravenous
# Mus musculus [60] = experiment: Average body weight in grams on day 5 minus average body weight on day 1 at the dose of 50 mg/kg in experiment 2
# Mus musculus [61] = experiment: Number of survivors out of 10 mice after 60 days infected with lewis lung carcinoma at the dose of 50 mg/kg in experiment 3
# Mus musculus [62] = experiment: Effect of compound on life span of mice inoculated intravenously with lewis lung carcinoma at the dose of 50 mg/kg in experiment 2; details: route intravenous
# Mus musculus [63] = experiment: Effect of compound on life span of mice inoculated intravenously with lewis lung carcinoma at the dose of 100 mg/kg in experiment 1; details: route intravenous
# Mus musculus [64] = experiment: Number of survivors out of 10 mice after 60 days infected with lewis lung carcinoma at the dose of 1.56 mg/kg in experiment 4
# Mus musculus [65] = experiment: Effect of compound on life span of mice inoculated intravenously with lewis lung carcinoma at the dose of 400 mg/kg in experiment 1; details: route intravenous
compound,measurement,setting,value
NC(=O)c1csc([C@@H]2O[C@H](CO)[C@@H](O)[C@H]2O)n1 [TIAZOFURIN],Survivors,Mus musculus [1],0
same,Weight change,Mus musculus [2],1.3 g
same,Weight change,Mus musculus [3],2 g
same,Survivors,Mus musculus [4],7
same,Median life span,Mus musculus [5],46 days
same,Survivors,Mus musculus [6],9
same,Survivors,Mus musculus [7],10
same,Survivors,Mus musculus [8],9
same,Weight change,Mus musculus [9],0.7 g
same,Median life span,Mus musculus [10],8.5 days
same,Weight change,Mus musculus [11],-0.8 g
same,Survivors,Mus musculus [12],1
same,Survivors,Mus musculus [13],6
same,Weight change,Mus musculus [14],1.7 g
same,Survivors,Mus musculus [15],10
same,Weight change,Mus musculus [16],1.1 g
same,Median life span,Mus musculus [17],16 days
same,Survivors,Mus musculus [18],10
same,Survivors,Mus musculus [19],10
same,Survivors,Mus musculus [20],9
same,Survivors,Mus musculus [21],0
same,Weight change,Mus musculus [22],1.3 g
same,Weight change,Mus musculus [23],1.2 g
same,Survivors,Mus musculus [24],0
same,Weight change,Mus musculus [25],1 g
same,Weight change,Mus musculus [26],1.5 g
same,Median life span,Mus musculus [27],22.8 days
same,Weight change,Mus musculus [28],1.3 g
same,Median life span,Mus musculus [29],7 days
same,Survivors,Mus musculus [30],0
same,Weight change,Mus musculus [31],0.5 g
same,Weight change,Mus musculus [32],1.2 g
same,Median life span,Mus musculus [33],20 days
same,Weight change,Mus musculus [34],2.3 g
same,Survivors,Mus musculus [35],9
same,Median life span,Mus musculus [36],23 days
same,Survivors,Mus musculus [37],10
same,Weight change,Mus musculus [38],1.2 g
same,Median life span,Mus musculus [39],25.3 days
same,Median life span,Mus musculus [40],20 days
same,Weight change,Mus musculus [41],-2.1 g
same,Survivors,Mus musculus [42],10
same,Survivors,Mus musculus [43],6
same,Median life span,Mus musculus [44],11.3 days
same,Median life span,Mus musculus [45],39.5 days
same,Survivors,Mus musculus [46],8
same,Survivors,Mus musculus [47],7
same,Median life span,Mus musculus [48],11.3 days
same,Weight change,Mus musculus [49],0.4 g
same,Median life span,Mus musculus [50],55 days
same,Weight change,Mus musculus [51],1.3 g
same,Weight change,Mus musculus [52],0.9 g
same,Weight change,Mus musculus [53],0.7 g
same,Weight change,Mus musculus [54],1.8 g
same,Survivors,Mus musculus [55],10
same,Weight change,Mus musculus [56],1.9 g
same,Weight change,Mus musculus [57],2.2 g
same,Survivors,Mus musculus [58],7
same,Median life span,Mus musculus [59],47 days
same,Weight change,Mus musculus [60],1.6 g
same,Survivors,Mus musculus [61],9
same,Median life span,Mus musculus [62],47 days
same,Median life span,Mus musculus [63],17 days
same,Survivors,Mus musculus [64],0
same,Median life span,Mus musculus [65],9.5 days
